What all share (experiment): KinomeScan profiling
Common to all, as to format: binding

One test has as its target T1, PRKD2 (Homo sapiens, UniProt Q9BZL6).
T1 sequence (Q9BZL6 1-878): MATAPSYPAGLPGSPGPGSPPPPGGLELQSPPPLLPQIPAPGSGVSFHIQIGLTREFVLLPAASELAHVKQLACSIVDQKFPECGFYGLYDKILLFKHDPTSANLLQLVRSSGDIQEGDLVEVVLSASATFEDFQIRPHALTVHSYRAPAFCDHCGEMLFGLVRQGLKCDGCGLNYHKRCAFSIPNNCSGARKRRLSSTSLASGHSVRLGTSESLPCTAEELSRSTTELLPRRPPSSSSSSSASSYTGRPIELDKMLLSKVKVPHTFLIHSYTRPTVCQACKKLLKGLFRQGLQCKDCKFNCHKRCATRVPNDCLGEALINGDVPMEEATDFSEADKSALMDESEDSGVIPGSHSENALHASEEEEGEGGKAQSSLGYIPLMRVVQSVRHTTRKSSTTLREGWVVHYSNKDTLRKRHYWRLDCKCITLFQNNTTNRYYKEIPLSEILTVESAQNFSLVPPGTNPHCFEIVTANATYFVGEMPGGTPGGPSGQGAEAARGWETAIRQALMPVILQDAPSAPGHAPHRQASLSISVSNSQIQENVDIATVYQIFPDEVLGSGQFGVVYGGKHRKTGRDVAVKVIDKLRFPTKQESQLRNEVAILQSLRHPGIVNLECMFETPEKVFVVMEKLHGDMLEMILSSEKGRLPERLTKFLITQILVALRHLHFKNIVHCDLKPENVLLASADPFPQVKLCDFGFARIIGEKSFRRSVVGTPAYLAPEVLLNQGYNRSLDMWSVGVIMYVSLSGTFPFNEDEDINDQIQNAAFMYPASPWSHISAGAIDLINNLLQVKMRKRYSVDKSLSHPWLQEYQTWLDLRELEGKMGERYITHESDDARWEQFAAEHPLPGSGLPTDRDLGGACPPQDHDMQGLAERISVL
Conditions: PRKD2, 1 μM; read-out: % control. The method, boiled down: (§1)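 Selectivity was assessed by binding competition at 1 μM against 468 kinases. Values below 35% of control define an interaction.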

A further test deals with T2, SLK (Homo sapiens, UniProt Q9H2G2).
T2 construct: purchased KinomeScan® (panel service)
The conditions noted are these: read-out: % control. An outline of the steps:
as §1

Another test has as its target T3, MEK6 (Homo sapiens, UniProt P52564).
T3 sequence (P52564 1-334): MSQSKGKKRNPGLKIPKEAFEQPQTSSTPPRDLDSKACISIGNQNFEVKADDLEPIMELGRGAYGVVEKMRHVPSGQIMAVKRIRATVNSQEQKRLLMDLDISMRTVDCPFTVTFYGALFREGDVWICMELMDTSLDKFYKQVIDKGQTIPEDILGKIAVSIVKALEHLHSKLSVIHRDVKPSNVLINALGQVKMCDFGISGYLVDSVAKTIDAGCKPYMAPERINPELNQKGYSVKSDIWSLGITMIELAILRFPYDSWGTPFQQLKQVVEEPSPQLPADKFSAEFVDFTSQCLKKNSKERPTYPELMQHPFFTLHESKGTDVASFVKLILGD
Conditions: MEK6, 1 μM; read-out: % control. The method, boiled down:
as §1

The next test has as its target T4, EPHB1 (Homo sapiens, UniProt P54762).
T4 sequence (P54762 18-984): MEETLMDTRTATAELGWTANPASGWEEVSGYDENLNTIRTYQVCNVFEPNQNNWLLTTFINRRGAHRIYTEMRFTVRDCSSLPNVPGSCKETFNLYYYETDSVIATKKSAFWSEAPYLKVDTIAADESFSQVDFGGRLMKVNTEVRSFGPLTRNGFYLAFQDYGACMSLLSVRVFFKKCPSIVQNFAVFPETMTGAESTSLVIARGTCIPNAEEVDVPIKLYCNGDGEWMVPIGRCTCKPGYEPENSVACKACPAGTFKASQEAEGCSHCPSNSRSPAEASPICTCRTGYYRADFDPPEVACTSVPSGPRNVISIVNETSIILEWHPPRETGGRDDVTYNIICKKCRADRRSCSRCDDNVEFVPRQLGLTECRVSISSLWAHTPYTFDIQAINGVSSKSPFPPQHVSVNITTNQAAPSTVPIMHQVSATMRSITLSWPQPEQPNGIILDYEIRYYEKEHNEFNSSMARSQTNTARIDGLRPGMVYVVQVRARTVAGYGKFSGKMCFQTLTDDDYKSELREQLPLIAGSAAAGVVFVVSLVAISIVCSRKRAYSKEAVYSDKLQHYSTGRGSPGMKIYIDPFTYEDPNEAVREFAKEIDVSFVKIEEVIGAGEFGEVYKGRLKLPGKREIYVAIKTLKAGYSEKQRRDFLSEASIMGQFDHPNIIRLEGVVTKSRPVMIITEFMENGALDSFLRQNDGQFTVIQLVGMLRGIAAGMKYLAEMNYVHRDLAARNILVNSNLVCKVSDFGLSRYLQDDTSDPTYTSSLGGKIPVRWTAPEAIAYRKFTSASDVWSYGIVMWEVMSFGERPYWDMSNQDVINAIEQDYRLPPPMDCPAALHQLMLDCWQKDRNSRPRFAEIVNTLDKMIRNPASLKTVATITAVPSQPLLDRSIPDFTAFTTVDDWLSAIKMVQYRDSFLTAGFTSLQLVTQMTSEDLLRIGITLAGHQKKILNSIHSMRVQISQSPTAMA
Conditions: EPHB1, 1 μM; read-out: % control. An outline of the steps: as §1

T2 sequence (Q9H2G2 whole entry): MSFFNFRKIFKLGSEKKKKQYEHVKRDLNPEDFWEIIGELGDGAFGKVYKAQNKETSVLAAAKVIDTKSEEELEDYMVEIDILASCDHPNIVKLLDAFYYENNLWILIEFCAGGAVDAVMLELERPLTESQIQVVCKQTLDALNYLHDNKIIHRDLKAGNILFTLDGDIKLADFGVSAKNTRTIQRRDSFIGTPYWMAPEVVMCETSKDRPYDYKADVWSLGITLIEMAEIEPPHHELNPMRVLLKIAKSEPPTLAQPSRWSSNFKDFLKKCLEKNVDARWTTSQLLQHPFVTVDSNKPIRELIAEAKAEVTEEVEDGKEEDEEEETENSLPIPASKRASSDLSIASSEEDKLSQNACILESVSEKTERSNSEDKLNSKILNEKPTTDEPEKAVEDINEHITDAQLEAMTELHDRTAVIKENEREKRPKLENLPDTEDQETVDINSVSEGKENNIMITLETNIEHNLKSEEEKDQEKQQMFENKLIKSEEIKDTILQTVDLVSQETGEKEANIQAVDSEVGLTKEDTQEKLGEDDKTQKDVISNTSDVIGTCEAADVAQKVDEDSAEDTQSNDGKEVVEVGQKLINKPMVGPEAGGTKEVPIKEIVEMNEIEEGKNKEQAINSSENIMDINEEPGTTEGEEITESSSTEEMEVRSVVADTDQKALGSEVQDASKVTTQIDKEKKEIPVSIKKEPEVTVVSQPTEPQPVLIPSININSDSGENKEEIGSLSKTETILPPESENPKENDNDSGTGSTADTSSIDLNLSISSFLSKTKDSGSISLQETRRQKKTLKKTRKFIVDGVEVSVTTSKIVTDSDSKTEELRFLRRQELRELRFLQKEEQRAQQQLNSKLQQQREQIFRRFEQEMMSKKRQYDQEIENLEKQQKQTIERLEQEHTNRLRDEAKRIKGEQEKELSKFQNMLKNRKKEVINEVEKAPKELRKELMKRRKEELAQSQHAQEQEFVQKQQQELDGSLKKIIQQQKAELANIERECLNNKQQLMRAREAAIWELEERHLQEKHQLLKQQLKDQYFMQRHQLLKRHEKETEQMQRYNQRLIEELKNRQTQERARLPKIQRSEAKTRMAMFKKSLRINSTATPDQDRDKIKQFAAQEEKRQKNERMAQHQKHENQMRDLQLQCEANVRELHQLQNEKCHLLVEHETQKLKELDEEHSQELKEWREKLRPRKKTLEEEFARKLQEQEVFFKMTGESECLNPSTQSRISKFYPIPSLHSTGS

Take `CNc1c(-c2ccc(C(=O)N3CCC(N4CCOCC4)CC3)cc2)cnc2[nH]cc(Cl)c12` [Compound 96, (4-(3-chloro-4-(methylamino)-1H-pyrrolo[2,3-b]pyridin-5-yl)phenyl)(4-morpholinopiperidin-1-yl)methanone]: the remaining binding at 1 µM at PRKD2 turned out to be 13%; on SLK it was 68%; at MEK6, 16%; on EPHB1, 100%.
For `O=C(c1ccc(-c2cnc3[nH]cc(Cl)c3c2NC2CCCC2)cc1)N1CCC(N2CCOCC2)CC1` [Compound 101, (4-(3-chloro-4-(cyclopentylamino)-1H-pyrrolo[2,3-b]pyridin-5-yl)phenyl)(4-morpholinopiperidin-1-yl)methanone] the same measures were 59%, 78%, 95% and 95%.
For `CNc1c(-c2cnn([C@H]3CCN(C(C)=O)C[C@@H]3F)c2)cnc2[nH]cc(Cl)c12` [Compound 77, 1-((3S,4S)-4-(4-(3-chloro-4-(methylamino)-1H-pyrrolo[2,3-b]pyridin-5-yl)-1H-pyrazol-1-yl)-3-fluoropiperidin-1-yl)ethan-1-one], in that order: 90%, 86%, 60% and 93%.

The values are drawn from patent US12275731B2, “Azaindole inhibitors of wild-type and mutant forms of LRRK2” (DANA-FARBER CANCER INSTITUTE, INC., priority 2018, dated 2025).
